This is an account of results in PMC12186255, “Discovery and Characterization of Small Molecule Inhibitors Targeting Exonuclease 1 for Homologous Recombination-Deficient Cancer Therapy” (ACS Chemical Biology, 2025).

Experiment [1] has as its system MDA-MB-436 cells. Kind of experiment: γ-H2AX immunofluorescence and Western blot (DSB burden). Format: cell-based, human. Conditions: MDA-MB-436 parental (BRCA1-deficient) cells, 10 or 50 μM, overnight/24 h. On the procedure:
(b) Quantification of the relative γ-H2AX per nucleus from panel a. […] The intensity of the γ-H2AX bands correlates with the level of DSBs observed in the immunofluorescence images in panel a. […] Strong γ-H2AX foci are observed, indicating an increased burden of DSBs. […] (e) Quantification of the relative γ-H2AX per nucleus is depicted in panel d. […] The intensity of the γ-H2AX bands correlates with the level of DSBs observed in the immunofluorescence images in panel d.
Cells were seeded at a density of 3× 10^5 cells per well in 12-well plates with preplaced coverslips and treated with or without various inhibitor treatments overnight. Cells were then incubated with EdU for 30 min before collection. For PARylation analysis, cells were permeabilized with 0.1% Triton X100, fixed with 4% paraformaldehyde, blocked with the Image-iT FX signal enhancer (Invitrogen), and incubated (1.5 h, RT) with the indicated primary antibodies (PAR/pADPr Antibody; Biotechne). […] The slides were then washed with the PBS buffer, counterstained with DAPI, and analyzed with a fluorescence microscope (Zeiss Observer Z1). […] The slides were then washed with the PBS buffer, incubated with the Click-iT reaction mix for EdU as aforementioned, counterstained with DAPI, and analyzed with a fluorescence microscope (Zeiss Observer Z1).

A further experiment deals with T1, EXO1 (Homo sapiens, UniProt Q9UQ84).
T1 construct: made in house
T1 sequence (Q9UQ84 1-846): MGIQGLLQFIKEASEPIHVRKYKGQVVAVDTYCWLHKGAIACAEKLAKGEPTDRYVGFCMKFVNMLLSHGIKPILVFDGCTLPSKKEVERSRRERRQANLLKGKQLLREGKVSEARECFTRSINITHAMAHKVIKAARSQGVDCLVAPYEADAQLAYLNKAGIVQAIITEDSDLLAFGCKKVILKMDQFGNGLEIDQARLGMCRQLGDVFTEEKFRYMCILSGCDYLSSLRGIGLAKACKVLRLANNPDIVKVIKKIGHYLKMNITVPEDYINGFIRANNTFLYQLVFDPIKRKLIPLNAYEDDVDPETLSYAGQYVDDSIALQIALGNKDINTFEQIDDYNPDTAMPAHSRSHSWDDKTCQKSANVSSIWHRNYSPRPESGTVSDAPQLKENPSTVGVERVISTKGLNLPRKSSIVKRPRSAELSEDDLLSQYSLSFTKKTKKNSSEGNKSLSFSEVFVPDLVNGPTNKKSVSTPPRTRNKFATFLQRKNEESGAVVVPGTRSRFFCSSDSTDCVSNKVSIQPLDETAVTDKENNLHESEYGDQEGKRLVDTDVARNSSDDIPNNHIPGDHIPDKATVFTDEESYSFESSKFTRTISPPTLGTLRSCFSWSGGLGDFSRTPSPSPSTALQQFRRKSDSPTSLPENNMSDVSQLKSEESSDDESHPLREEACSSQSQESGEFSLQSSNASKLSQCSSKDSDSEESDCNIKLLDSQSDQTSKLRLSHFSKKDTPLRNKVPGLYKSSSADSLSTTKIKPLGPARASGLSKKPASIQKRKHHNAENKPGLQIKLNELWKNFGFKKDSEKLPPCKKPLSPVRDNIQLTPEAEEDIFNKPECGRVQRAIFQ
Kind of experiment: Inhibitor kinetics by FRET-based EXO1 assay (Michaelis-Menten, Lineweaver-Burk). It is filed as biochemical. To be noted: for V max: Michaelis–Menten plot; for mechanism of EXO1 inhibition: from Michaelis–Menten and Lineweaver–Burk plots. From the text:
We then calculated the initial velocity of enzyme activity by calculating the rate within the linear region of the time-dependent RFU.
The initial velocity of enzyme activity was obtained by calculating the rate of the linear region of the time-dependent RFU.

The next experiment has as its system MDA-MB-231 cells. Kind of experiment: Gel-based phospho-RPA end resection assay. It is filed as cell-based, human. Conditions: inhibitor overnight then 2 μM CPT 2 h, C5 10 μM. As for the experimental part:
The levels of RPA32 and phosphorylated RPA32 (S33) were analyzed by Western blotting using antibodies against RPA32 and phosphorylated RPA32 (S33). The total level of tubulin was used as a control. (b) Ratio of P-RPA:RPA levels calculated from panel a. […] U2OS cells carrying a GFP reporter for HR were infected with adenovirus expressing the I-SceI restriction enzyme. […] U2OS cells carrying a GFP reporter for HR were infected with adenovirus expressing the I-SceI restriction enzyme. […] For panels c and d, after 48 h, the cells were harvested, and the GFP-positive cells were analyzed by flow cytometry. Values are the mean ± S.D. of three independent experiments.
The treated cells were then lysed in the SDS-PAGE sample buffer, and the lysate was separated by SDS-PAGE prior to immobilization on a nitrocellulose membrane and Western blotting. Antibodies against unphosphorylated RPA, S33-P-RPA2, and tubulin were subsequently assayed according to the manufacturer’s recommendations. The ratio of P-RPA/RPA levels were quantified via ImageJ.

The next experiment has as its system U251. Kind of experiment: Cell line drug profiling, CellTiter Glo. Conditions: Homo sapiens, U-251; U251, Central Nervous System, 72 h. It is filed as cell-based. As for the experimental part:
(§1) We tested the cytotoxicity of representative compounds from the seven EXO1i scaffolds against a subset of the NCI-60 cell line panel along with three additional pancreatic cell lines (FG, AsPC1, and CaPan2). In general, cells were seeded in 384-well tissue culture-treated plates overnight and treated with various concentrations of each hit compound (a serial 3-fold dilution from 50 μM for all tested hits). Each concentration was performed in duplicate. Cell viability was then measured by CellTiter Glo (Promega) after 72 h of treatment.
(ATP-based viability assays read luminescence as a measure of living cells.)

The next experiment deals with OVCAR-4. Kind of experiment: Cell line drug profiling, CellTiter Glo. To be noted: Homo sapiens; OVCAR-4, Ovarian, 72 h. Format: cell-based. On the procedure: as §1
The subject of the next experiment is SNB-19. Kind of experiment: Cell line drug profiling, CellTiter Glo. It is filed as cell-based. To be noted: Homo sapiens; SNB-19, Central Nervous System, 72 h. As for the experimental part:
as §1

A further experiment has as its system NCI/ADR-RES. Kind of experiment: Cell line drug profiling, CellTiter Glo. It is filed as cell-based. To be noted: Homo sapiens, Ovarian, 72 h. On the procedure:
as §1

For experiment [2], the system named is MDA-MB-436 cells. Kind of experiment: S-phase PARylation immunofluorescence. Conditions: MDA-MB-436 BRCA1− and BRCA1+ cells, 10 or 50 μM overnight. Format: cell-based, human. As for the experimental part:
(b) Quantification of the relative PARylation per nucleus from panel a. […] Strong PARylation foci are observed in BRCA1– cells. […] (d) Quantification of the relative PARylation per nucleus from panel c.
Cells were seeded at a density of 3× 10^5 cells per well in 12-well plates with preplaced coverslips and treated with or without various inhibitor treatments overnight. Cells were then incubated with EdU for 30 min before collection. For PARylation analysis, cells were permeabilized with 0.1% Triton X100, fixed with 4% paraformaldehyde, blocked with the Image-iT FX signal enhancer (Invitrogen), and incubated (1.5 h, RT) with the indicated primary antibodies (PAR/pADPr Antibody; Biotechne). The cells were then washed with PBS buffer and incubated (1 h, RT) with the corresponding secondary antibodies (1:200, Invitrogen). Subsequently, the fixed cells were incubated with the Click-iT reaction mix (100 mM Tris-HCl pH 8.5, […], 1 mM CuSO4, and 100 mM ascorbic acid (Sigma-Aldrich)) for 1 h at RT. The slides were then washed with the PBS buffer, counterstained with DAPI, and analyzed with a fluorescence microscope (Zeiss Observer Z1). […] The slides were then washed with the PBS buffer, incubated with the Click-iT reaction mix for EdU as aforementioned, counterstained with DAPI, and analyzed with a fluorescence microscope (Zeiss Observer Z1).

For `COC(=O)c1nc(-c2ccc(OC)cc2)nc(O)c1O` [C200], the “γ-H2AX levels (unresolved DSBs)” value with MDA-MB-436 cells [1] was “no effect”. Moreover, the V max at EXO1 (2 μM C200) worked out at 415.5 min^–1. Moreover, on EXO1, the “mechanism of EXO1 inhibition” value is “uncompetitive mechanism”. Further, the IC50 at EXO1 (kinetic assays, read-out: IC50 of each compound, used as fixed inhibitor concentration) was 2 µM; in the experiment on U251, more than 50 µM; with OVCAR-4 it was more than 50 µM; in the experiment with SNB-19 it was more than 50 µM; with NCI/ADR-RES, more than 50 µM. In the experiment on MDA-MB-231 cells, the “CPT-induced P-RPA levels (DNA end resection)” value was “significantly reduced”. Besides, the “S-phase PARylation” value in the experiment with MDA-MB-436 cells [2] is reported as “no effect”.
`Cc1cccc(N2CCN(c3ccc(NS(=O)(=O)c4ccccc4)c(C(=O)O)c3)CC2)c1C` [F684]: in the experiment with MDA-MB-436 cells [1], the “γ-H2AX levels (unresolved DSBs)” value was “significant increase”. This molecule displayed a V max at EXO1 ([…] μM F684) of 114.1 min^–1. Besides, the “mechanism of EXO1 inhibition” value at EXO1 is given as “uncompetitive mechanism”. The “CPT-induced P-RPA levels (DNA end resection)” value in the experiment on MDA-MB-231 cells is given as “significantly reduced”. In addition, the “S-phase PARylation” value with MDA-MB-436 cells [2] is on record as “additive effect”.
